Source: ChEMBL document CHEMBL4616654, “Irpexine, an Isoindolinone Alkaloid Produced by Coculture of Endophytic Fungi, Irpex lacteus and Phaeosphaeria oryzae” (J Nat Prod, 2020)
Active and inactive are the calls of the source.

Experiments:
HeLa = assay: Cytotoxicity against human HeLa cells at 50 uM; type: functional, cell-based
Escherichia coli = assay: Antimicrobial activity against Escherichia coli at 50 uM; type: functional, organism-based
Bacillus cereus = assay: Antimicrobial activity against Bacillus cereus at 50 uM; type: functional, organism-based
Candida albicans = assay: Antifungal activity against Candida albicans at 50 uM; type: functional, organism-based

Measured: Activity

CC(C)=CCc1ccc(O)c(C2c3c(O)cc(C(=O)O)cc3C(=O)N2CCO)c1O (stereo not drawn)
inactive: all assays above

O=c1c2cc3c(CO)cc4cc(O)cc(O)c4c3oc-2cc2cc(O)cc(O)c12
inactive: all assays above
